# ChEMBL document CHEMBL4390695, “Veratric acid derivatives containing benzylidene-hydrazine moieties as promising tyrosinase inhibitors and free radical scavengers” (Bioorg Med Chem, 2019)
# Calls of active or inactive are those of the source. The rule behind the calls is not given here.
# B1: Tyrosinase (Agaricus bisporus), O42713 (protein)
# chain: MSLIATVGPTGGVKNRLNIVDFVKNEKFFTLYVRSLELLQAKEQHDYSSFFQLAGIHGLPFTEWAKERPSMNLYKAGYCTHGQVLFPTWHRTYLSVLEQILQGAAIEVAKKFTSNQTDWVQAAQDLRQPYWDWGFELMPPDEVIKNEEVNITNYDGKKISVKNPILRYHFHPIDPSFKPYGDFATWRTTVRNPDRNRREDIPGLIKKMRLEEGQIREKTYNMLKFNDAWERFSNHGISDDQHANSLESVHDDIHVMVGYGKIEGHMDHPFFAAFDPIFWLHHTNVDRLLSLWKAINPDVWVTSGRNRDGTMGIAPNAQINSETPLEPFYQSGDKVWTSASLADTARLGYSYPDFDKLVGGTKELIRDAIDDLIDERYGSKPSSGARNTAFDLLADFKGITKEHKEDLKMYDWTIHVAFKKFELKESFSLLFYFASDGGDYDQENCFVGSINAFRGTAPETCANCQDNENLIQEGFIHLNHYLARDLESFEPQDVHKFLKEKGLSYKLYSRGDKPLTSLSVKIEGRPLHLPPGEHRPKYDHTQARVVFDDVAVHVIN
# How the values were obtained:
# Tyrosinase = target: T1, Tyrosinase (Agaricus bisporus, UniProt O42713); assay: Inhibition of mushroom tyrosinase assessed as reduction in dopachrome formation using L-DOPA as substrate preincubated for 20 mins followed by substrate addition by spectrophotometry
# T1 sequence (O42713 whole entry): B1 chain
# [1] = target: T2, Tyrosinase (Agaricus bisporus) (UniProt O42713); assay: Competitive inhibition of mushroom tyrosinase assessed as reduction in dopachrome formation at 50 uM using L-DOPA as substrate preincubated for 20 mins followed by substrate addition by spectrophotometry based Lineweaver-Burk plot analysis
# T2 sequence (whole entry): B1 chain
# [2] = compound: COc1ccc(C(=O)N/N=C/c2ccc(Cl)cc2)cc1OC; assay: Competitive inhibition of mushroom tyrosinase assessed as reduction in dopachrome formation by measuring substrate Vmax at 50 uM using L-DOPA as substrate preincubated for 20 mins followed by substrate addition by spectrophotometry based Lineweaver-Burk plot analysis (reference value: […] mM/min); settings: Agaricus bisporus
# [3] = compound: COc1ccc(C(=O)N/N=C/c2ccc(Cl)cc2)cc1OC; assay: Competitive inhibition of mushroom tyrosinase assessed as reduction in dopachrome formation by measuring substrate Km at 50 uM using L-DOPA as substrate preincubated for 20 mins followed by substrate addition by spectrophotometry based Lineweaver-Burk plot analysis (reference value: […] mM); settings: Agaricus bisporus
molecule,measurement,setting,value
COc1ccc(C(=O)N/N=C/c2cc(OC)c(OC)c(OC)c2)cc1OC,IC50,Tyrosinase,37.4 µM
COc1ccc(/C=N/NC(=O)c2ccc(OC)c(OC)c2)cc1OC,IC50,Tyrosinase,> 50 µM
COc1cc(/C=N/NC(=O)c2ccc(OC)c(OC)c2)ccc1O,IC50,Tyrosinase,> 50 µM
COc1ccc(C(=O)N/N=C/c2ccc(Cl)cc2)cc1OC,inhibition,[1],Active
same,IC50,Tyrosinase,19.7 µM
COc1ccc(C(=O)N/N=C/c2cc(OC)c(O)c(OC)c2)cc1OC,IC50,Tyrosinase,> 50 µM
COc1ccc(C(=O)N/N=C/c2ccc(N(C)C)cc2)cc1OC,IC50,Tyrosinase,> 50 µM
COc1ccc(C(=O)N/N=C/c2cccc([N+](=O)[O-])c2)cc1OC,IC50,Tyrosinase,> 50 µM
CCOc1cc(/C=N/NC(=O)c2ccc(OC)c(OC)c2)ccc1O,IC50,Tyrosinase,> 50 µM
COc1ccc(C(=O)N/N=C/c2ccc(O)cc2)cc1OC,IC50,Tyrosinase,> 50 µM
COc1ccc(C(=O)N/N=C/c2ccc([N+](=O)[O-])cc2)cc1OC,IC50,Tyrosinase,> 50 µM
COc1ccccc1/C=N/NC(=O)c1ccc(OC)c(OC)c1,IC50,Tyrosinase,35.2 µM
COc1ccc(C(=O)N/N=C/c2ccc(OC(C)=O)c(OC)c2)cc1OC,IC50,Tyrosinase,28.3 µM
COc1ccc(C(=O)N/N=C/c2ccc(O)cc2O)cc1OC,IC50,Tyrosinase,31.5 µM
COc1ccc(/C=N/NC(=O)c2ccc(OC)c(OC)c2)cc1,IC50,Tyrosinase,> 50 µM
COc1ccc(C(=O)N/N=C/c2cccc(O)c2O)cc1OC,IC50,Tyrosinase,20.6 µM
COc1ccc(C(=O)N/N=C/c2ccc(Br)cc2)cc1OC,IC50,Tyrosinase,> 50 µM
B1,Vmax,[2],0.15 mM/min
same,Km,[3],5.88 mM
